Laboratory results taken from patent publication US20190175528A1, “INHIBITION OF BIOFILM ORGANISMS” (NovaBiotics Limited, priority 2009, published 2019).
Numbered stars: 1 amine (or outer) side, 2 acyl side, 3 side chain; on linkers, the order of the positions; unused ones are H or OH. Ends that are not written are not given here. Peptide text beside a SMILES is read from it. Cysteamide = C(CS[*:3])N[*:1]

What was measured:
S. epidermidis ATCC12228 [1] = format: cell-based, Staphylococcus epidermidis; settings: ATCC12228, 24 h
Method: (§1) The bacterial inoculum was established by the dilution method from actively-growing cultures in Mueller-Hinton broth, standardized with 0.5 McFarland turbidity standard as described in the CLSI method M26-A.
(§2) To determine the prevention of biofilm formation, both the bacterial inoculum and the antimicrobial agents were added simultaneously to the plates. The plates were incubated at 37° C. for 24 h and the optical density was read at 625 nm on a microtitre plate reader (BioTek Powerwave XS, Winooski, USA). The MIC was obtained as the lowest concentration of antimicrobial showing total inhibition of bacterial growth.

S. aureus ATCC25923 [2] = format: cell-based, Staphylococcus aureus; settings: ATCC25923, 24 h
Method: as §1, §2

[3] = system: S. aureus DSM 11729 (MRSA); test: microbe, parasite or virus in culture; format: cell-based, Staphylococcus aureus; settings: DSM 11729, 24 h; for MIC pH5.5, 320 mM NaCl, S. aureus 11729 / MIC pH5.5, S. aureus 11729: pH 5.5
Method: as §1
as §2, with “growth. […]” for “growth.”
(§3) FIC=MICA[combination]/MICA[alone]+MICB[combination]/MICB[alone] […]
(§4) In order to assess for the prevention of biofilm formation by both Gram-positive and Gram-negative bacteria, the bacterial inoculum and antimicrobial agents were added simultaneously in the plates. The range of concentrations of antimicrobial agents was 0-500 μg/ml NP108 and 0-320 μg/ml cysteamine against the Gram-negative bacteria P. aeruginosa ATCC BAA-47 and 0-1000 μg/ml NP108 and 0-320 μg/ml cysteamine against the Gram-positive MRSA.

P. aeruginosa DSMZ1128 [4] = format: cell-based, Pseudomonas aeruginosa; settings: DSMZ1128, 24 h
Method: as §1, §2

P. aeruginosa DSMZ1299 [5] = format: cell-based, Pseudomonas aeruginosa; settings: for MIC at pH 7, P. aeruginosa D5MZ1299: DSMZ1299, 24 h
Method: as §1, §2

[6] = system: P. aeruginosa ATCC BAA-47; test: microbe, parasite or virus in culture; format: cell-based, Pseudomonas aeruginosa; settings: ATCC BAA-47, 24 h; for MIC pH5.5, 320 mM NaCl, P. aeruginosa ATCCBAA-47 / MIC pH5.5, P. aeruginosa ATCCBAA-47: pH 5.5
Method: as §1
as §2, with “growth. […]” for “growth.”
as §3, §4

S. epidermidis ATCC12228 [7] = settings: ATCC12228, pH 7
S. aureus ATCC25923 [8] = settings: ATCC25923, pH 7
[9] = system: S. aureus DSM 11729 (MRSA); settings: for MBC at pH5.5, S. aureus 11729 / MBC pH5.5, 320 mM NaCl, S. aureus 11729: DSM 11729, pH 5.5; for MBC following MIC at pH 7, S. aureus DSMZ11729: DSM 11729, pH 7
P. aeruginosa DSMZ1128 [10] = settings: DSMZ1128, pH 7
P. aeruginosa DSMZ1299 [11] = settings: DSMZ1299, pH 7
[12] = system: P. aeruginosa ATCC BAA-47; settings: for MBC at pH5.5, P. aeruginosa ATCCBAA-47 / MBC pH5.5, 320 mM NaCl, P. aeruginosa ATCCBAA-47: ATCC BAA-47, pH 5.5; for MBC following MIC at pH 7, P. aeruginosa ATCCBAA-47: ATCC BAA-47, pH 7

| Compound | MIC at pH 7, S. epidermidis ATCC12228 (S. epidermidis ATCC12228 [1]) | MIC at pH 7, S. aureus ATCC25923 (S. aureus ATCC25923 [2]) | MIC pH5.5, 320 mM NaCl, S. aureus 11729 [3] | MIC pH5.5, S. aureus 11729 [3] | MIC at pH 7, S. aureus DSMZ11729 [3] | MIC at pH 7, P. aeruginosa DSMZ1128 (P. aeruginosa DSMZ1128 [4]) | MIC at pH 7, P. aeruginosa D5MZ1299 (P. aeruginosa DSMZ1299 [5]) | MIC pH5.5, 320 mM NaCl, P. aeruginosa ATCCBAA-47 [6] | MIC pH5.5, P. aeruginosa ATCCBAA-47 [6] | MIC at pH 7, P. aeruginosa ATCCBAA-47 [6] | MBC following MIC at pH 7, S. epidermidis ATCC12228 (S. epidermidis ATCC12228 [7]) | MBC following MIC at pH 7, S. aureus ATCC25923 (S. aureus ATCC25923 [8]) | MBC at pH5.5, S. aureus 11729 [9] | MBC pH5.5, 320 mM NaCl, S. aureus 11729 [9] | MBC following MIC at pH 7, S. aureus DSMZ11729 [9] | MBC following MIC at pH 7, P. aeruginosa DSMZ1128 (P. aeruginosa DSMZ1128 [10]) | MBC following MIC at pH 7, P. aeruginosa DSMZ1299 (P. aeruginosa DSMZ1299 [11]) | MBC at pH5.5, P. aeruginosa ATCCBAA-47 [12] | MBC pH5.5, 320 mM NaCl, P. aeruginosa ATCCBAA-47 [12] | MBC following MIC at pH 7, P. aeruginosa ATCCBAA-47 [12] | further results |
| --- | --- | --- | --- | --- | --- | --- | --- | --- | --- | --- | --- | --- | --- | --- | --- | --- | --- | --- | --- | --- | --- |
| N=C(N)NCCC[C@H](NC(=O)[C@H](CCCCN)NC(=O)[C@@H]1CCCN1C(=O)[C@H](CCCNC(=N)N)NC(=O)[C@H](CCCNC(=N)N)NC(=O)[C@@H]1CCCN1C(=O)[C@H](CCCCN)NC(=O)[C@H](CCCNC(=N)N)NC(=O)[C@H](CCCNC(=N)N)NC(=O)[C@@H]1CCCN1C(=O)[C@H](CCCCN)NC(=O)[C@@H](N)CCCCN)C(=O)N[C@@H](CCCCN)C(=O)N[C@@H](CCCCN)C(=O)NCCS [NP449, KKPRRKPRRPKRKK-cysteamine] (H-KKPRRKPRRPKRKK-Cysteamide; N-terminus assumed) | 31.25 μg/ml | 250 μg/ml | >500 μg/ml | >500 μg/ml | 125 μg/ml | 250 μg/ml | 125 μg/ml | >500 μg/ml | >500 μg/ml | 250 μg/ml | 125 μg/ml | >500 μg/ml | >500 μg/ml | >500 μg/ml | 250 μg/ml | 500 (2) μg/ml | 250 (2) μg/ml | >500 μg/ml | >500 μg/ml | >500 μg/ml | – |
| N=C(N)NCCC[C@H](NC(=O)[C@H](CCCCN)NC(=O)[C@@H]1CCCN1C(=O)[C@H](CCCNC(=N)N)NC(=O)[C@H](CCCNC(=N)N)NC(=O)[C@@H]1CCCN1C(=O)[C@H](CCCCN)NC(=O)[C@H](CCCNC(=N)N)NC(=O)[C@H](CCCNC(=N)N)NC(=O)[C@@H]1CCCN1C(=O)[C@H](Cc1c[nH]cn1)NC(=O)[C@@H](N)Cc1c[nH]cn1)C(=O)N[C@@H](Cc1c[nH]cn1)C(=O)N[C@@H](Cc1c[nH]cn1)C(=O)NCCS [NP451, HHPRRKPRRPKRHH-cysteamine] (H-HHPRRKPRRPKRHH-Cysteamide; N-terminus assumed) | 125 μg/ml | 500 μg/ml | >500 μg/ml | >500 μg/ml | 500 μg/ml | >500 μg/ml | >500 μg/ml | >500 μg/ml | >500 μg/ml | >500 μg/ml | 125 μg/ml | >500 μg/ml | >500 μg/ml | >500 μg/ml | >500 μg/ml | >500 μg/ml | >500 μg/ml | 250 μg/ml | >500 μg/ml | >500 μg/ml | Exp#3, P. aeruginosa DSMZ1299 (quantity not clearly headed) (P. aeruginosa DSMZ1299 [5]): >500 µg/mL |
| N=C(N)NCCC[C@H](NC(=O)[C@H](CCCNC(=N)N)NC(=O)[C@H](CCCNC(=N)N)NC(=O)[C@H](CCCNC(=N)N)NC(=O)[C@@H](N)CCCNC(=N)N)C(=O)NCCS [NP457, RRRRR-cysteamine] (H-RRRRR-Cysteamide; N-terminus assumed) | 31.25 μg/ml | 125 μg/ml | >500 μg/ml | >500 μg/ml | 125 μg/ml | >500 μg/ml | >500 μg/ml | >500 μg/ml | >500 μg/ml | 250 μg/ml | 125 (2) μg/ml | 62.5 μg/ml | >500 μg/ml | >500 μg/ml | 125 (2) μg/ml | >500 μg/ml | >500 μg/ml | >500 μg/ml | >500 μg/ml | >500 μg/ml | Exp#3, P. aeruginosa DSMZ1299 (quantity not clearly headed) (P. aeruginosa DSMZ1299 [5]): >500 µg/mL |
| N=C(N)NCCC[C@H](NC(=O)[C@H](CCCNC(=N)N)NC(=O)[C@H](CCCNC(=N)N)NC(=O)[C@H](CCCNC(=N)N)NC(=O)[C@@H](N)CCCNC(=N)N)C(=O)N[C@@H](Cc1c[nH]cn1)C(=O)N[C@@H](Cc1c[nH]cn1)C(=O)NCCS [NP458, RRRRRHH-cysteamine] (H-RRRRRHH-Cysteamide; N-terminus assumed) | 31.25 μg/ml | 250 μg/ml | >500 μg/ml | >500 μg/ml | 250 μg/ml | 250 μg/ml | 125 μg/ml | >500 μg/ml | >500 μg/ml | 62.5 μg/ml | 500 μg/ml | 125 μg/ml | >500 μg/ml | >500 μg/ml | 250 μg/ml | >500 μg/ml | >500 μg/ml | >500 μg/ml | >500 μg/ml | >500 μg/ml | – |
| HHHFRFFFRFRRR [NP438, HHHFRFFFRFRRR] | <7.8 μg/ml | >500 μg/ml | >500 μg/ml | >500 μg/ml | >500 μg/ml | >500 μg/ml | 500 μg/ml | 62.5 μg/ml | 125 μg/ml | >500 μg/ml | 125 μg/ml | >500 μg/ml | >500 μg/ml | >500 μg/ml | >500 μg/ml | >500 μg/ml | >500 μg/ml | >500 μg/ml | >500 μg/ml | >500 μg/ml | – |
| HHPRRKPRRPKRRHH [NP441, HHPRRKPRRPKRRHH] | >500 μg/ml | >500 μg/ml | >500 μg/ml | >500 μg/ml | >500 μg/ml | >500 μg/ml | >500 μg/ml | >500 μg/ml | >500 μg/ml | >500 μg/ml | >500 μg/ml | >500 μg/ml | >500 μg/ml | >500 μg/ml | >500 μg/ml | >500 μg/ml | >500 μg/ml | >500 μg/ml | >500 μg/ml | >500 μg/ml | Exp#3, P. aeruginosa DSMZ1299 (quantity not clearly headed) (P. aeruginosa DSMZ1299 [5]): >500 µg/mL |
